For series [1], the target named is DRB1_0701 (Homo sapiens, UniProt P01903+P01911, A100R/A102G/A103Q/D57E/D86V/E43K/F76Y/K127E/L162R/M171V/P40G/Q125H/Q99D/R33Q/R42Y/R54Q/S133A/S66F/T210M/V115G/Y107V/Y59L/Y89S). Put plainly: Competitive MHC class II binding assay, DRB1_0701.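 Note: displacement of a radiolabeled reference peptide from purified HLA class II protein, with complex-bound radioactivity counted after 2–4 days of incubation and six concentrations spanning a 100,000-fold range.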
Series [2] addresses DRB1_1501 (Homo sapiens, UniProt P01903+P01911). Put plainly: Competitive MHC class II binding assay, DRB1_1501.
In series [3] the target is T1, DPA10103-DPB10301 (Homo sapiens, UniProt P04440+P20036, A65V/A84D/A85E/E86D/F38Y/G113D/G114E/G40L/I94L/L37V/M105V/M116V/P115A/R125K/T199I).
T1 sequence (P20036 29-260): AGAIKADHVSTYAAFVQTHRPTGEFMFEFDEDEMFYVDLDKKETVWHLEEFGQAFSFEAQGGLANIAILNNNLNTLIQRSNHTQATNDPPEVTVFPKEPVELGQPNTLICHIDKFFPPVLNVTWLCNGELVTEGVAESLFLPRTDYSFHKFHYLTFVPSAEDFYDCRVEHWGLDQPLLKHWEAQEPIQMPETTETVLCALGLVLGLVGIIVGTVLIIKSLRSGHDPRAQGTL
T1 sequence (P04440 30-258 L37V/F38Y/G40L/A65V/A84D/A85E/E86D/I94L/M105V/G113D/G114E/P115A/M116V/R125K/T199I/V234M): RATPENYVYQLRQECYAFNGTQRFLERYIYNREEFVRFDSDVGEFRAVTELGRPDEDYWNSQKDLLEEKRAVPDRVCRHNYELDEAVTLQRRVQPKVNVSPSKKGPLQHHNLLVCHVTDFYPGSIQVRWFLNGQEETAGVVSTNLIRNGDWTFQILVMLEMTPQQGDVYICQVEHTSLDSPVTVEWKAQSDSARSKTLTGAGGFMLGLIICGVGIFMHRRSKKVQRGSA
Put plainly: Competitive MHC class II binding assay, DPA10103-DPB10301.

Series [4] addresses DRB5_0101 (Homo sapiens, UniProt P01903+Q30154). Put plainly: Competitive MHC class II binding assay, DRB5_0101.
The target in series [5] is T2, DPA10103-DPB10201 (Homo sapiens, UniProt P04440+P20036, A65V/A84D/A85E/K98E).
T2 sequence (P20036 29-260): T1 sequence (P20036 29-260)
T2 sequence (P04440 30-258 A65V/A84D/A85E/K98E): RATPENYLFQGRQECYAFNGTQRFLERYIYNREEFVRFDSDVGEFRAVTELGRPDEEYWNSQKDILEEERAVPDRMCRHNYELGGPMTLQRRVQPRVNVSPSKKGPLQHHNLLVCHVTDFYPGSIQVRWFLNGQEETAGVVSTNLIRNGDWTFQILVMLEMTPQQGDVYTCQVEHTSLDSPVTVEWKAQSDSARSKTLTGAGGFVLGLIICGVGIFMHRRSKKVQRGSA
Put plainly: Competitive MHC class II binding assay, DPA10103-DPB10201.

For series [6], the target named is DRB1_0101 (Homo sapiens, UniProt P01903+P01911, A100R/D57E/F55L/F60I/F76Y/I96L/L162R/M171V/P40L/Q125E/R42F/V115G/Y59C). Put plainly: Competitive MHC class II binding assay, DRB1_0101.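 Note: competition against a radiolabeled probe peptide (0.1–1 nM) for purified HLA class II protein over 2–4 days, bound counts read after antibody capture, six competitor levels across 100,000-fold.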
Series [7] has as its target DRB4_0101 (Homo sapiens, UniProt P01903+P13762, G164S). Put plainly: Competitive MHC class II binding assay, DRB4_0101.
The target in series [8] is DRB1_0401 (Homo sapiens, UniProt P01903+P01911, A100K/A169T/F76Y/I96L/K127E/L162R/M171V/N62H/P40V/Q125Y/R42H/S133A/S149N/S66Y/V115G/V209L/W38E). Description: Competitive MHC class II binding assay, DRB1_0401.
The target of series [9] is DRB1_0405 (Homo sapiens, UniProt P01903+P01911, A100R/A169T/D86S/F76Y/I96L/K127E/L162R/M171V/N62H/P40V/Q125Y/R42H/S133A/S149N/S66Y/V115G/V209L/W38E). Put plainly: Competitive MHC class II binding assay, DRB1_0405.
For series [10], the target named is DRB1_1302 (Homo sapiens, UniProt P01903+P01911, A100E/A169T/K41T/L162R/M171V/P40S/Q125H/Q178H/Q39Y/Q99D/R42S/S66N/T262R/V115G/W38E/Y61H). Description: Competitive MHC class II binding assay, DRB1_1302.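 Note: purified HLA class II protein incubated two to four days with a radiolabeled reference binder and test peptide at six concentrations over a 100,000-fold range, complex-bound radioactivity counted.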
Series [11] addresses DRB1_1201 (Homo sapiens, UniProt P01903+P01911, A100R/A169T/D57E/D86V/F55L/H45Y/K41T/L162R/M171V/P40S/Q125H/Q178H/Q39Y/Q99D/R42G/S66L/T262R/V114A/V67L/W38E/Y59H/Y61H/Y89S). Put plainly: Competitive MHC class II binding assay, DRB1_1201.
Series [12] concerns the target DRB1_0301 (Homo sapiens, UniProt P01903+P01911, A100K/A102G/A103R/A169T/F55Y/I96L/K41T/L162R/M171V/P40S/Q125H/Q178H/Q39Y/R42S/S66N/T106N/T262R/W38E/Y61H). Description: Competitive MHC class II binding assay, DRB1_0301.
The target of series [13] is DRB1_0802 (Homo sapiens, UniProt P01903+P01911, A100R/A103L/A169T/F76Y/H45Y/I96F/K41T/L162R/M171V/P40S/Q125H/Q178H/Q39Y/Q99D/R218S/R42G/S66Y/V115G/W38E). Description: Competitive MHC class II binding assay, DRB1_0802.
Series [14] has as its target DRB1_1101 (Homo sapiens, UniProt P01903+P01911, A100R/A169T/A87E/I96F/K41T/L162R/M171V/P40S/Q125H/Q178H/Q39Y/Q99D/R42S/S66Y/T262R/V115G/W38E). Description: Competitive MHC class II binding assay, DRB1_1101.
The target of series [15] is DRB1_0901 (Homo sapiens, UniProt P01903+P01911, A100R/A103E/D57H/D86V/F55Y/F60I/F76Y/I96F/K127E/L162R/M171V/P40D/Q125H/Q99R/R33Q/R42F/S133A/S66N/T210M/V115G/W38K/Y107V/Y59G/Y89S). Description: Competitive MHC class II binding assay, DRB1_0901.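 Note: displacement of a radiolabeled probe peptide from purified HLA class II protein, bound counts read after two to four days incubation, six concentrations spanning 100,000-fold, unlabeled probe as reference.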
Series [16] deals with DRB3_0202 (Homo sapiens, UniProt P01903+P79483, A212P/D57E/F66Y/L67A/R103Q/R218S/R40L/S89Y/T80R/V86D/Y55F/Y59H). Put plainly: Competitive MHC class II binding assay, DRB3_0202.
The target of series [17] is DRB3_0101 (Homo sapiens, UniProt P01903+P79483). Put plainly: Competitive MHC class II binding assay, DRB3_0101.
Series [18] can be described thus: Solubility of peptides in aqueous solutions at different pH (visual inspection, OD, HPLC). It is filed as physicochemical. Conditions: pH 7, visual inspection. The source says: This example describes modifications of parent peptides to improve the aqueous solubility, in particular to increase the solubility in an aqueous solution having pH in a physiologically acceptable range, e.g. from 6 to 8. Solubility is closely related to the ratio between hydrophilic and hydrophobic amino acid residues and the net charge state of the peptide. Peptides have zero net charge at pH=pI, and would be expected to show the lowest solubility at this pH. […] The solubility of these peptides was increased at pH values outside the physiological range (data not shown).
Peptides were tested for their ability to dissolve in aqueous solutions at different pH values. In short, each of the peptides were dissolved in water (pH about 5-6), hydrochloride solution at pH 2 (10 mM HCl), acetate buffer with pH 5 (20 mM acetate and 140 mM sodium chloride), phosphate buffer with pH 7 (20 mM phosphate and 140 mM sodium chloride) or bistrispropate buffer with pH 9 (20 mM bitrispropane and 140 mM sodium chloride, respectively, to produce a final molar concentration of the peptide of about 0.25 mM or 1 mM. Optionally, about 20% DMSO may be part of the solution. For comparison reasons, peptides were also dissolved in acetonitrile or DMSO. The solutions were inspected visually before and after centrifugation for turbidity, presence of particles/aggregates. In addition, presence of turbidity/particles/aggregates were detected by optical density (OD), but might also be detected by size-exclusion chromatography. Sub-visual particles may also be detected by dynamic light scattering (DLS) analysis. The solubility and stability of each peptide were also investigated using HPLC, e.g. RP-HPLC. For example, each of the solutions were injected onto the HPLC and the peak height or peak area of each of the peptides were compared to the corresponding peptide of a chromatogram of peptides dissolved in acetonitrile or DMSO—as peptides were assumed to be fully dissolved and stable in these solvents.

Series [19] concerns the target DQA10501-DQB10201 (Homo sapiens, UniProt P01909+P01920, A45G/A70V/D89A/E106A/E77G/E98D/H199R/L107V/N214S/P84L/P87L/T103K/T109R/T172A/T60S/V78E/V99I/Y58L/Y62S/Y69I/Y79F). Description: Competitive MHC class II binding assay, DQA10501-DQB10201.
In series [20] the test system is DQA10401-DQB10402. Description: Competitive MHC class II binding assay, DQA10401-DQB10402.
The target of series [21] is DQA10102-DQB10602. Description: Competitive MHC class II binding assay, DQA10102-DQB10602. Particulars: read-out: HLA-DQA10102-DQB10602; positive binding at cutoff 1000 nM.

No end group written: not given here. Some results are limits rather than exact numbers.

In the case of “DLRQMRTVTPIRMQGGSGS [HDM203B, reference compound]”, the IC50 in [1], in [2], in [3], in series [4], in series [5] and in series [6] was less than 1 µM in each case. Further, the IC50 in series [7], in series [8], in series [9], in series [10], in [11] and in [12] was less than 1 µM each time. Further, the IC50 in series [13], in [14] and in series [15] was less than 1 µM each time.
Take IEYIQQNGVVEERSYPYVAR [pep-075]: the IC50 in series [16], in [17], in series [6], in [9], in [10] and in [11] was less than 1 µM each time. Further, the IC50 in series [12] was less than 1 µM; in [19], less than 1 µM; in series [20] (read-out: HLA-DQA10401-DQB10402, positive binding at cutoff 1000 nM), less than 1 µM; in series [21] it was less than 1 µM. The “binding to HLA Class II allele DRB3_0202” value in series [16] (as shown in Table 16a) is “binds to at least the same alleles as peptide 041”. The “binding to HLA Class II allele DRB3_0101” value in series [17] (as shown in Table 16a) is listed as “binds to at least the same alleles as peptide 041”. The “Solubility at pH 7 (visual inspection)” value in series [18] is recorded as “Turbid”. The “binding to HLA Class II allele DRB1_1302” value in series [10] (as shown in Table 16a) was “binds to at least the same alleles as peptide 041”. In [19] (as shown in Table 16a), the “binding to HLA Class II allele DQA10501-DQB10201” value is on record as “binds to at least the same alleles as peptide 041”. In series [20] (as shown in Table 16a), the “binding to HLA Class II allele DQA10401-DQB10402” value is listed as “binds to at least the same alleles as peptide 041”.
Consider QESYYRYVAREQSSRR [pep-122], for which the IC50 in series [1], in series [3], in series [4], in series [16], in [6] and in series [8] was less than 1 µM each time. Further, the IC50 in series [9], in [11], in [13], in [14] and in series [15] was less than 1 µM each time.

Source of the values: US20160251403A1, “PEPTIDE COMBINATIONS AND USES THEREOF IN TREATING DUST MITE ALLERGY” (ALK-ABELLO A/S, priority 2013, published 2016).
